ChEMBL document CHEMBL1671858, “Coprevalence of plasmid-mediated quinolone resistance determinants QepA, Qnr, and AAC(6')-Ib-cr among 16S rRNA methylase RmtB-producing Escherichia coli isolates from pigs” (2008)
≈ marks a conversion by molar mass, not a printed value.

Assays:
Type in all cases: functional
[1] = system: Escherichia coli; experiment: Antimicrobial activity against Escherichia coli isolate GZ11 transconjugant harboring 16S rRNA methylase RmtB and qepA by agar dilution method relative to recipient strain
[2] = system: Escherichia coli; experiment: Antimicrobial activity against Escherichia coli isolate CQ5 PFGE type I2 harboring qepA gene by agar dilution method
[3] = system: Escherichia coli; experiment: Antimicrobial activity against Escherichia coli isolate GZ12 transconjugant harboring 16S rRNA methylase RmtB and qepA by agar dilution method relative to recipient strain
[4] = system: Escherichia coli; experiment: Antimicrobial activity against Escherichia coli isolate CQ7 PFGE type Q harboring qepA gene by agar dilution method
[5] = system: Escherichia coli; experiment: Antimicrobial activity against Escherichia coli isolate GZ10 PFGE type R harboring qepA gene by agar dilution method
[6] = system: Escherichia coli; experiment: Antimicrobial activity against Escherichia coli isolate GZ6 PFGE type B harboring qepA gene by agar dilution method
[7] = system: Escherichia coli; experiment: Antimicrobial activity against Escherichia coli isolate GZ1 transconjugant harboring 16S rRNA methylase RmtB and qnrS1 by agar dilution method relative to recipient strain
[8] = system: Escherichia coli; experiment: Antimicrobial activity against Escherichia coli isolate CQ13 transconjugant harboring 16S rRNA methylase RmtB and qnrS1 by agar dilution method relative to recipient strain
[9] = system: Escherichia coli; experiment: Antimicrobial activity against Escherichia coli isolate CQ13 PFGE type K harboring qepA gene by agar dilution method
[10] = system: Escherichia coli; experiment: Antimicrobial activity against Escherichia coli isolate CQ19 transconjugant harboring 16S rRNA methylase RmtB and qepA, aac(6')-Ib-cr gene by agar dilution method relative to recipient strain
[11] = system: Escherichia coli; experiment: Antimicrobial activity against Escherichia coli isolate GZ15 PFGE type G harboring qepA gene by agar dilution method
[12] = system: Escherichia coli; experiment: Antimicrobial activity against Escherichia coli isolate GZ4 transconjugant harboring 16S rRNA methylase RmtB and qepA by agar dilution method relative to recipient strain
[13] = system: Escherichia coli; experiment: Antimicrobial activity against Escherichia coli isolate CQ26 transconjugant harboring 16S rRNA methylase RmtB and qepA by agar dilution method relative to recipient strain
[14] = system: Escherichia coli; experiment: Antimicrobial activity against Escherichia coli isolate GZ1 PFGE type O harboring qepA gene by agar dilution method
[15] = system: Escherichia coli; experiment: Antimicrobial activity against Escherichia coli isolate CQ22 transconjugant harboring 16S rRNA methylase RmtB and qnrS1 by agar dilution method relative to recipient strain
[16] = system: Escherichia coli; experiment: Antimicrobial activity against Escherichia coli isolate CQ18 transconjugant harboring 16S rRNA methylase RmtB and qepA by agar dilution method relative to recipient strain
[17] = system: Escherichia coli; experiment: Antimicrobial activity against Escherichia coli isolate GZ10 transconjugant harboring 16S rRNA methylase RmtB and qepA, aac(6')-Ib-cr gene by agar dilution method relative to recipient strain
[18] = system: Escherichia coli; experiment: Antimicrobial activity against Escherichia coli isolate GZ9 transconjugant harboring 16S rRNA methylase RmtB and qepA by agar dilution method relative to recipient strain
[19] = system: Escherichia coli; experiment: Antimicrobial activity against Escherichia coli isolate CQ6 transconjugant harboring 16S rRNA methylase RmtB and qepA, qnrS2, aac(6')-Ib-cr gene by agar dilution method relative to recipient strain
[20] = system: Escherichia coli; experiment: Antimicrobial activity against Escherichia coli isolate CQ1 transconjugant harboring 16S rRNA methylase RmtB and qnrB6 by agar dilution method relative to recipient strain
[21] = system: Escherichia coli; experiment: Antimicrobial activity against Escherichia coli isolate GZ14 PFGE type F harboring qepA gene by agar dilution method
[22] = system: Escherichia coli; experiment: Antimicrobial activity against Escherichia coli isolate GZ7 transconjugant harboring 16S rRNA methylase RmtB and qepA and qnrS1 by agar dilution method relative to recipient strain
[23] = system: Escherichia coli; experiment: Antimicrobial activity against Escherichia coli isolate GZ4 PFGE type A2 harboring qepA gene by agar dilution method
[24] = system: Escherichia coli; experiment: Antimicrobial activity against Escherichia coli isolate GZ12 PFGE type F harboring qepA gene by agar dilution method
[25] = system: Escherichia coli; experiment: Antimicrobial activity against Escherichia coli isolate GZ11 PFGE type E harboring qepA gene by agar dilution method
[26] = system: Escherichia coli; experiment: Antimicrobial activity against Escherichia coli isolate CQ5 transconjugant harboring 16S rRNA methylase RmtB and qepA by agar dilution method relative to recipient strain
[27] = system: Escherichia coli; experiment: Antimicrobial activity against Escherichia coli isolate CQ1 PFGE type U harboring qepA gene by agar dilution method
[28] = system: Escherichia coli; experiment: Antimicrobial activity against Escherichia coli isolate GZ3 PFGE type A1 harboring qepA gene by agar dilution method
[29] = system: Escherichia coli; experiment: Antimicrobial activity against Escherichia coli isolate CQ12 transconjugant harboring 16S rRNA methylase RmtB and qepA, qnrS2, aac(6')-Ib-cr gene by agar dilution method relative to recipient strain
[30] = system: Escherichia coli; experiment: Antimicrobial activity against Escherichia coli isolate CQ7 transconjugant harboring 16S rRNA methylase RmtB and qepA, qnrS2, aac(6')-Ib-cr gene by agar dilution method relative to recipient strain
[31] = system: Escherichia coli; experiment: Antimicrobial activity against Escherichia coli isolate GZ6 transconjugant harboring 16S rRNA methylase RmtB and qepA by agar dilution method relative to recipient strain
[32] = system: Escherichia coli; experiment: Antimicrobial activity against Escherichia coli isolate CQ4 transconjugant harboring 16S rRNA methylase RmtB and qepA by agar dilution method relative to recipient strain
[33] = system: Escherichia coli; experiment: Antimicrobial activity against Escherichia coli isolate CQ12 PFGE type Q harboring qepA gene by agar dilution method
[34] = system: Escherichia coli; experiment: Antimicrobial activity against Escherichia coli isolate CQ18 PFGE type I2 harboring qepA gene by agar dilution method
[35] = system: Escherichia coli; experiment: Antimicrobial activity against Escherichia coli isolate CQ2 transconjugant harboring 16S rRNA methylase RmtB and qepA by agar dilution method relative to recipient strain
[36] = system: Escherichia coli; experiment: Antimicrobial activity against Escherichia coli isolate GZ15 transconjugant harboring 16S rRNA methylase RmtB and qepA by agar dilution method relative to recipient strain
[37] = system: Escherichia coli; experiment: Antimicrobial activity against Escherichia coli isolate CQ26 PFGE type K harboring qepA gene by agar dilution method
[38] = system: Escherichia coli; experiment: Antimicrobial activity against Escherichia coli isolate CQ14 PFGE type M harboring qepA gene by agar dilution method
[39] = system: Escherichia coli; experiment: Antimicrobial activity against Escherichia coli isolate GZ16 PFGE type H harboring qepA gene by agar dilution method
[40] = system: Escherichia coli; experiment: Antimicrobial activity against Escherichia coli isolate CQ10 PFGE type L harboring qepA gene by agar dilution method
[41] = system: Escherichia coli; experiment: Antimicrobial activity against Escherichia coli isolate CQ22 PFGE type P harboring qepA gene by agar dilution method
[42] = system: Escherichia coli; experiment: Antimicrobial activity against Escherichia coli isolate GZ16 transconjugant harboring 16S rRNA methylase RmtB and qepA by agar dilution method relative to recipient strain
[43] = system: Escherichia coli; experiment: Antimicrobial activity against Escherichia coli isolate CQ16 transconjugant harboring 16S rRNA methylase RmtB and qepA, qnrS2, aac(6')-Ib-cr gene by agar dilution method relative to recipient strain
[44] = system: Escherichia coli; experiment: Antimicrobial activity against Escherichia coli isolate GZ8 transconjugant harboring 16S rRNA methylase RmtB and qepA by agar dilution method relative to recipient strain
[45] = system: Escherichia coli; experiment: Antimicrobial activity against Escherichia coli isolate GZ2 transconjugant harboring 16S rRNA methylase RmtB and qnrS1 by agar dilution method relative to recipient strain
[46] = system: Escherichia coli; experiment: Antimicrobial activity against Escherichia coli isolate CQ16 PFGE type Q harboring qepA gene by agar dilution method

CCN1CCN(c2cc3c(cc2F)c(=O)c(C(=O)O)cn3C2CC2)CC1 [ENROFLOXACIN]
fold change (FC) [1]: 4 | MIC [2]: 4 µg/mL (≈ 11.1 µM) | fold change (FC) [3]: 4 | MIC [4]: 2 µg/mL (≈ 5.56 µM) | MIC [5]: 16 µg/mL (≈ 44.5 µM) | MIC [6]: 16 µg/mL (≈ 44.5 µM) | fold change (FC) [7]: 32 | fold change (FC) [8]: 8 | MIC [9]: 0.5 µg/mL (≈ 1.39 µM) | fold change (FC) [10]: 4 | MIC [11]: 8 µg/mL (≈ 22.3 µM) | fold change (FC) [12]: 4 | fold change (FC) [13]: 2 | MIC [14]: 4 µg/mL (≈ 11.1 µM) | fold change (FC) [15]: 2 | fold change (FC) [16]: 1 | fold change (FC) [17]: 4 | fold change (FC) [18]: 2 | fold change (FC) [19]: 2 | fold change (FC) [20]: 1 | MIC [21]: 16 µg/mL (≈ 44.5 µM) | fold change (FC) [22]: 1 | MIC [23]: 32 µg/mL (≈ 89 µM) | MIC [24]: 16 µg/mL (≈ 44.5 µM) | MIC [25]: 128 µg/mL (≈ 356 µM) | fold change (FC) [26]: 2 | MIC [27]: 0.25 µg/mL (≈ 0.696 µM) | MIC [28]: 64 µg/mL (≈ 178 µM) | fold change (FC) [29]: 4 | fold change (FC) [30]: 2 | fold change (FC) [31]: 2 | fold change (FC) [32]: 1 | MIC [33]: 2 µg/mL (≈ 5.56 µM) | MIC [34]: 2 µg/mL (≈ 5.56 µM) | fold change (FC) [35]: 16 | fold change (FC) [36]: 8 | MIC [37]: 0.5 µg/mL (≈ 1.39 µM) | MIC [38]: 16 µg/mL (≈ 44.5 µM) | MIC [39]: > 128 µg/mL | MIC [40]: 0.25 µg/mL (≈ 0.696 µM) | MIC [41]: 4 µg/mL (≈ 11.1 µM) | fold change (FC) [42]: 2 | fold change (FC) [43]: 2 | fold change (FC) [44]: 16 | fold change (FC) [45]: 2 | MIC [46]: 2 µg/mL (≈ 5.56 µM)
